Assay results: patent US11946094B2, “Combination therapies and methods of use thereof” (Augusta University Research Institute, Inc., priority 2017, dated 2024)
Entries after “also recorded” stand apart in the source; their conditions may differ. Counter-ions that a name gives are not always drawn. Like-named read-outs stand apart in the source and are kept apart here.

Tested on: OVCAR-8 cells
Assay: Drug-siRNA combination screen: 346-compound anticancer library at 100 nM, CCK-8 viability
Settings: for number of genes (of 18) whose knockdown synergizes with the drug: siRNA knockdown
[1] = OVCAR-8, drug 100 nM plus siRNA knockdown of each of 18 genes, distance VAB−VA×VB in SD, single gene contributes at most +5 / −5, negative = synergy, positive = antagonism
[2] = OVCAR-8, drug 100 nM, panel of 18 siRNA knockdowns

Compound	Score (sum of observed SD values for 18 genes) [1]	other results
Cn1cc(-c2ccc3nnc(Sc4ccc5ncccc5c4)n3n2)cn1 [SGX-523]	−8.5 SD	
CC(=O)Nc1ccc(OC[C@](C)(O)C(=O)Nc2ccc([N+](=O)[O-])c(C(F)(F)F)c2)cc1 [Andarine]	−7.28 SD	
c1ccc2c(CCNc3ccc(Nc4ccncc4)cc3)c[nH]c2c1 [Serdemetan]	−29.35 SD	
c1ccc(-c2nn3c(c2-c2ccnc4cc(OCCN5CCOCC5)ccc24)CCC3)nc1 [LY2109761]	−40.45 SD	
NC(=O)Nc1cc(-c2cccc(F)c2)sc1C(=O)N[C@H]1CCCNC1 [AZD7762]	−43.68 SD	synergy / antagonism of drug with gene knockdowns, in words [2]: Frequently among the top synergizing pairs; also recorded: high level of synergism
CCC(CC)CC1(C(=O)Nc2ccccc2SC(=O)C(C)C)CCCCC1 [Dalcetrapid]	−31.1 SD	
CCC(=O)N1CCN(c2ccc(-n3c(=O)ccc4cnc5ccc(-c6cnc7ccccc7c6)cc5c43)cc2C(F)(F)F)CC1 [Torin 1]	−32.55 SD	
COc1cc(Nc2ncc(F)c(Nc3ccc4c(n3)N(COP(=O)(O)O)C(=O)C(C)(C)O4)n2)cc(OC)c1OC [Fostamatinib]	−4.27 SD	
C[S+]([O-])c1ccc(-c2nc(-c3ccc(F)cc3)c(-c3ccncc3)[nH]2)cc1 (centres unmarked) [SB 203580]	−40.85 SD	number of genes (of 18) whose knockdown synergizes with the drug (OVCAR-8, drug 100 nM): 9 genes
CC(=O)Nc1nc(C)c(-c2ccc(Cl)c(S(=O)(=O)NCCO)c2)s1 [PIK-93]	−20.62 SD	
O=C(O)C(Cc1c[nH]c2ccccc12)N1C(=O)c2ccccc2C1=O (centres unmarked) [RG108]	−0.52 SD	
Cn1c(=O)c(F)c(Nc2ccc(I)cc2F)c2c(=O)n(C[C@@H](O)CO)cnc21 [TAK-733]	−40.08 SD	
O=C(CCc1ccc(O)cc1)c1c(O)cc(O)cc1O [Phloretin]	−16.21 SD	
COc1cc2c(Oc3ccc4[nH]c(C)cc4c3F)ncnc2cc1OCCCN1CCCC1 [Cediranib]	−11.55 SD	
C=CCc1cccc(/C=N/NC(=O)CN2CCN(Cc3ccccc3)CC2)c1O [PAC - 1]	−13.56 SD	
COc1ccc(-c2ccc3c(N4CCOC[C@@H]4C)nc(N4CCOC[C@@H]4C)nc3n2)cc1CO [AZD8055]	-51.01 SD	
O=C(Cc1ccc(-c2ccc(OCCN3CCOCC3)cc2)cn1)NCc1ccccc1 [KX2-391]	13.4 SD	
CCn1c(=O)c(-c2cc[nH]n2)cc2c(C)nc(N)nc21 [XL765]	−10.06 SD	
CN(C)Cc1c(C(=O)NCCOc2ccc(C(=O)NO)cc2)oc2ccccc12 [PCI-24781]	-54.91 SD	synergy / antagonism of drug with gene knockdowns, in words [2]: mostly synergistic; number of genes (of 18) whose knockdown synergizes with the drug (OVCAR-8, drug 100 nM): 12 genes
CC(NC(=O)c1ccccc1/N=C/c1c(O)ccc2ccccc12)c1ccccc1 (centres unmarked) [Sirtinol]	−2.18 SD	

Compound	Score (sum of observed SD values for 18 genes) [1]	other results
O=c1c(O)c(-c2ccc(O)c(O)c2)oc2cc(O)cc(O)c12 [Quercetin]	−5.63 SD	
CCc1c2c(nc3ccc(OC(=O)N4CCC(N5CCCCC5)CC4)cc13)-c1cc3c(c(=O)n1C2)COC(=O)[C@]3(O)CC [Irinotecan]	−36.08 SD	
CC(C)C[C@H](NC(=O)CNC(=O)c1cc(Cl)ccc1Cl)B1OC(=O)C(CC(=O)O)(CC(=O)O)O1 [MLN9708]	−34 SD	
CCOc1cc2ncc(C#N)c(Nc3ccc(OCc4ccccn4)c(Cl)c3)c2cc1NC(=O)/C=C/CN(C)C [Neratinib]		Score (sum of observed SD values for 18 genes): −39.86 SD; synergy / antagonism of drug with gene knockdowns, in words: significant synergy with nine or more genes
NC(=O)CC[C@@H](N)C(=O)O [D-glutamine]	0.27 SD	
Nc1nc(Nc2ccc(S(N)(=O)=O)cc2)nn1C(=O)c1c(F)cccc1F [JNJ - 7706621]	5.07 SD	
CCCCCCNC(=O)n1cc(F)c(=O)[nH]c1=O [Carmofur]	−18.23 SD	
Nc1ccccc1NC(=O)c1ccc(CNc2nccc(-c3cccnc3)n2)cc1 [Mocetinostat]	1.27 SD	synergy / antagonism of drug with gene knockdowns, in words [2]: frequently antagonized by knockdown of specific genes
COc1c(C)c2c(c(O)c1C/C=C(\C)CCC(=O)O)C(=O)OC2 [Mycophenolic acid]	−20.87 SD	
C#Cc1cccc(Nc2ncnc3cc(OCCOC)c(OCCO)cc23)c1 [OSI-420]	−27.08 SD	
Cl.Cl.Fc1cc(-c2cccc3ncc(-c4cnn(C5CCNCC5)c4)nc23)cc(F)c1CN1CCOCC1 [NVP-BSK805 2HCI]	−43.77 SD	
O=C(Nc1cccnc1)N1CCC(Cc2cccc(Oc3ccc(C(F)(F)F)cn3)c2)CC1 [PF-3845]	-51.78 SD	
CN1CCN(c2cccc(Nc3nc4c(-c5ccc(S(C)(=O)=O)cc5)cccn4n3)c2)CC1 [CEP33779]	−27.66 SD	
C[C@]12CCC(=O)C=C1CC[C@@H]1[C@@H]2[C@@H](O)C[C@@]2(C)[C@H]1CC[C@]2(O)C(=O)CO [Hydrocortisone]	−21.54 SD	
Cc1ccc(C(=O)N(CCCN)[C@@H](c2nc3cc(Cl)ccc3c(=O)n2Cc2ccccc2)C(C)C)cc1 [Ispinesib]	1.22 SD	
COC1=C(OC)C(=O)C(C/C=C(\C)CC/C=C(\C)CC/C=C(\C)CC/C=C(\C)CC/C=C(\C)CC/C=C(\C)CC/C=C(\C)CC/C=C(\C)CC/C=C(\C)CCC=C(C)C)=C(C)C1=O [Coenzyme Q10]	−4.69 SD	
USP40: siRNA knocking down USP40; sense GGAAACUAGCUGUUAUACAtt (SEQ ID NO 35) (sense GGAAACUAGCUGUUAUACANN; antisense UGUAUAACAGCUAGUUUCCNN; listed as RNA, chemistry not given here)		number of tested HDACi highly synergistic with the gene knockdown (OVCAR-8, 12 tested HDACi): at least six; number of antagonistic/additive or highly antagonistic compounds with the gene knockdown (OVCAR-8, 346 compounds): Twelve or fewer
CN(C)CCOc1ccc(/C(=C(/CCCl)c2ccccc2)c2ccccc2)cc1 [Toremifene Citrate]	−22.88 SD	
CC[C@H](Nc1ncnc2[nH]cnc12)c1nc2cccc(F)c2c(=O)n1-c1ccccc1 [CAL-101]	−27.89 SD	
COC1=CC(c2cc3ccccc3[nH]2)=N/C1=C\c1[nH]c(C)cc1C [Obatoclax mesylate]	−10.02 SD	

Compound	Score (sum of observed SD values for 18 genes) [1]	other results
CCOc1cc2ncc(C#N)c(Nc3ccc(F)c(Cl)c3)c2cc1NC(=O)/C=C/CN(C)C [Pelitinib]	-54.75 SD	
CC(C)OC(=O)C1=CN(C(=O)c2ccc(F)c(F)c2)CC(C)(C)c2c1[nH]c1ccccc21 [WAY-362450]	−29.97 SD	
Cc1ccc([N+](=O)[O-])cc1S(=O)(=O)N(C)/N=C/c1cnc2ccc(Br)cn12 [PIK-75]	−19.42 SD	
O=C(O)c1nn(Cc2ccc(Cl)cc2Cl)c2ccccc12 [Lonidamine]	−16.85 SD	
CCCCc1nc2cc(/C=C/C(=O)NO)ccc2n1CCN(CC)CC [Pracinostat]	−43.48 SD	synergy / antagonism of drug with gene knockdowns, in words [2]: mostly synergistic; number of genes (of 18) whose knockdown synergizes with the drug (OVCAR-8, drug 100 nM): 11 genes
COc1ccc(Cl)c(Nc2nc3ccccc3nc2NS(=O)(=O)c2cccc(NC(=O)C(C)(C)N)c2)c1 [XL147]	−30.94 SD	
N#Cc1c(O)c2c(-c3ccc(-c4ccccc4O)cc3)csc2[nH]c1=O [A-769662]	−22.81 SD	
CN(C)Cc1ccc(-c2nc3cccc4c3n2CCNC4=O)cc1 [AG14361]	2.72 SD	
CO[C@H]1C[C@@H]2CC[C@@H](C)[C@@](O)(O2)C(=O)C(=O)N2CCCC[C@H]2C(=O)O[C@H]([C@H](C)C[C@@H]2CC[C@@H](OCCO)[C@H](OC)C2)CC(=O)[C@H](C)/C=C(\C)[C@@H](O)[C@@H](OC)C(=O)[C@H](C)C[C@H](C)/C=C/C=C/C=C/1C [Everolimus]		number of genes (of 18) whose knockdown synergizes with the drug (OVCAR-8, drug 100 nM): 14 genes
Cc1c(C(=O)Nc2ccc(N3C[C@@H](C)O[C@@H](C)C3)nc2)cccc1-c1ccc(OC(F)(F)F)cc1 [Erismodegib]	3.22 SD	
CC(O)(CS(=O)(=O)c1ccc(F)cc1)C(=O)Nc1ccc(C#N)c(C(F)(F)F)c1 (centres unmarked) [Bicalutamide]	−23.24 SD	
Cc1cc2c(C(C)C)c(O)c(O)c(C=O)c2c(O)c1-c1c(C)cc2c(C(C)C)c(O)c(O)c(C=O)c2c1O [Gossypol]	−13.34 SD	
COc1cc(Nc2ncc(F)c(Nc3ccc4c(n3)NC(=O)C(C)(C)O4)n2)cc(OC)c1OC [R406]	−28.54 SD	
COc1c(C)cnc(Cn2cnc3c(Cl)nc(N)nc32)c1C [BIIB021]	−33.01 SD	synergy / antagonism of drug with gene knockdowns, in words [2]: Frequently among the top synergizing pairs
C=CC(=O)Nc1cccc(Oc2nc(Nc3ccc(N4CCN(C)CC4)cc3OC)ncc2Cl)c1 [WZ4002]	−41.61 SD	
Cc1nc(N)sc1-c1ccnc(Nc2ccc(N3CCOCC3)cc2)n1 [CYC116]	−28.81 SD	
Nc1cccc2c1C(=O)N(C1CCC(=O)NC1=O)C2=O (centres unmarked) [Pomalidomide]	−3.4 SD	
NC(=O)c1ccc(-c2nc(-c3ccccn3)c(-c3ccc4c(c3)OCO4)[nH]2)cc1 [SB 431542]	−30.82 SD	
